# Reference: PMC5617480 (Oncotarget, 2017)
# Test system: telomeres/telomerase-related genes
# Assay: RT-qPCR array (Telomeres & Telomerase PCR Array)
# Assay type: cell-based, human
# Conditions: BEL-7404 cells, 10 μM, 24 h
# Description: To determine the mechanism(s), we further explored the effect of complex 6 on the expression of telomeres/telomerase-related genes (such as TRF1, hTERT, TRF2, c-myc, and 53BP1) in the BEL-7404 model. Firstly, RT-qPCR array was used to determine mRNA levels of telomeres/telomerase-related gene expressions in BEL-7404 cells when the cells were treated with complex 6. […] Secondly, these telomerase-related genes were determined by western blot. […]
# In addition, RNA
# 30.0 min at room temperature in the dark. Finally, the extraction, RT-PCR, and the selective binding to G4s by BEL-7404 cell cycle was determined with FACS Calibur complexes 4–6 was according to the our previous reported flow cytometer (BD) and analyzed using Cell Quest. […]
# ME). Gene expression by a panel of genes for RT-Determination of caspase-3/9 activity by flow qPCR array cytometric analysis Differential expression of telomeres/telomerase-related genes was analyzed using the Telomeres &
# Colorimetric analysis of caspase-9 and caspase-3 Telomerase PCR Array (RT2 Profiler™ PCR Array Human activation in BEL-7404 cells exposed to 10 μM of Telomeres & Telomerase, PAHS-010Z, SABioscience, complexes 4–6 for 24.0 h were carried out using the USA) obtained from Kangchen Bio-tech, Shanghai, China.
# CaspGLOW™ Fluorescein Active Caspase-9/Caspase-3 RNA was extracted according to standard protocols and Staining Kit. The BEL-7404 cells treated with complexes converted to first strand cDNA using the RT2 First Strand 4–6 and the controlled BEL-7404 cells were harvested Kit. The template was added to an instrument specific, from RPMI 1640 medium with 10% FBS, in a density of ready-to-use RT2 SYBR Green qPCR Master Mix. The 1.0 × 10^6 cells per milliliter. These cells were washed with resulting mixture was added to the wells (25.0 μL/well) of PBS and centrifuged for 3 times, and were then mixed the PCR Array plate containing the telomere maintenance, with 500 μL culture. 1.0 μL of FITC-LEHD-FMK or/telomere-associated complexes, telomere regulation and FITC-DEVD-FMK were consequently added and other genes associated with telomeres gene-specific primer incubated for 2.0 h at 37 °C with 5% CO2. The BEL- sets (25 μL for 96-well plates) and PCR was performed.
# 7404 cells were then determined with a FACS AriaII flow The threshold cycle (Ct) values for all the genes on each cytometer equipped with a 488 nm argon laser. Results PCR Array were calculated using the instrument specific were represented as the percent change on the activity software and the fold-changes in gene expression for pair-comparing with the control group. wise comparison were calculated using the 2-ΔCt method.
# Western blot assay TRAP Assay (TRAP-silver staining assay)
# The BEL-7404 Cells were treated with the same as Each telomerase extract was prepared from BEL-the above for 24.0 h with complexes 4–6 (10 μM), and 7404 cells. A modified version of the TRAP assay was total proteins were extracted by lysis buffer RIPA. Then used. The PCR was performed in a final […] use BCA protein assay to measure concentrations of each reaction volume composed of reaction mix ([…]) sample. After electrophoresis on 10% PAGE-SDS gel containing pH 8.0 Tris-HCl (20.0 mM), deoxynucleotide and blotting, anti-mutp53, 53BP1, TRF1, TRF2, hTERT, triphosphates ([…]), BSA (20 mg/mL), primer
substance,measurement,value
cis-[PtCl2(S-(–)-FOA)] [complex 6],"Fold Change, ABL1",0.80
same,"Fold Change, ACD",1.16
same,"Fold Change, ACTB",0.76
same,"Fold Change, AKT1",0.77
same,"Fold Change, ATM",1.08
same,"Fold Change, ATP5C1",1.19
same,"Fold Change, B2M",1.15
same,"Fold Change, BCL2",0.76
same,"Fold Change, BLM",1.21
same,"Fold Change, CDK2",0.80
same,"Fold Change, CHEK1",1.13
same,"Fold Change, CHEK2",1.23
same,"Fold Change, DCLRE1B",0.81
same,"Fold Change, DCLRE1C",1.20
same,"Fold Change, DKC1",1.14
same,"Fold Change, EGF",1.11
same,"Fold Change, EME1",1.26
same,"Fold Change, ERCC1",1.00
same,"Fold Change, ERCC4",1.22
same,"Fold Change, GAPDH",0.97
same,"Fold Change, GAR1",0.95
same,"Fold Change, HAT1",1.13
same,"Fold Change, HNRNPA2B1",1.06
same,"Fold Change, HNRNPD",0.95
same,"Fold Change, HPRT1",1.14
same,"Fold Change, HSP90AA1",1.35
same,"Fold Change, HSPA1L",1.65
same,"Fold Change, IGF1",0.02
same,"Fold Change, KRAS",0.88
same,"Fold Change, KRIT1",1.12
same,"Fold Change, MEN1",1.14
same,"Fold Change, MRE11A",1.41
same,"Fold Change, MSH2",0.90
same,"Fold Change, MSH3",0.66
same,"Fold Change, MUS81",1.55
same,"Fold Change, MYC",0.75
same,"Fold Change, NBN",0.79
same,"Fold Change, NCL",1.04
same,"Fold Change, NHP2",1.46
same,"Fold Change, NOP10",0.82
same,"Fold Change, OBFC1",1.32
same,"Fold Change, PARP1",1.02
same,"Fold Change, PAX8",9.91
same,"Fold Change, PIF1",0.84
same,"Fold Change, PINX1",1.13
same,"Fold Change, PLK1",0.72
same,"Fold Change, POT1",0.87
same,"Fold Change, PPARG",1.08
same,"Fold Change, PPP2R1A",0.88
same,"Fold Change, PPP2R1B",0.68
same,"Fold Change, PRKCA",1.12
same,"Fold Change, PRKCB",0.48
same,"Fold Change, PRKDC",0.83
same,"Fold Change, PTGES3",1.07
same,"Fold Change, PURA",1.07
same,"Fold Change, RAD17",1.11
same,"Fold Change, RAD50",1.44
same,"Fold Change, RAP1A",0.90
same,"Fold Change, RAPGEF1",0.97
same,"Fold Change, RASSF1",1.26
same,"Fold Change, RB1",0.59
same,"Fold Change, RFC1",1.33
same,"Fold Change, RIF1",1.67
same,"Fold Change, RPLP0",1.05
same,"Fold Change, RTEL1",0.39
same,"Fold Change, SART1",1.50
same,"Fold Change, SIRT2",0.84
same,"Fold Change, SIRT6",1.89
same,"Fold Change, SLX4",0.87
same,"Fold Change, SMAD3",0.65
same,"Fold Change, SMG6",1.05
same,"Fold Change, SP1",0.70
same,"Fold Change, SSB",1.14
same,"Fold Change, SUN1",1.04
same,"Fold Change, TEP1",1.73
same,"Fold Change, TERF1",1.39
same,"Fold Change, TERF2",0.99
same,"Fold Change, TERF2IP",1.47
same,"Fold Change, TERT",0.89
same,"Fold Change, TGFB1",1.46
same,"Fold Change, TINF2",1.14
same,"Fold Change, TNKS",1.12
same,"Fold Change, TNKS2",1.02
same,"Fold Change, TP53",1.45
same,"Fold Change, TP53BP1",1.18
same,"Fold Change, TPP1",1.07
same,"Fold Change, WRAP53",0.94
same,"Fold Change, XRCC5",0.76
same,"Fold Change, XRCC6",1.15
same,"Fold Up-or Down-Regulation, ABL1",-1.25
same,"Fold Up-or Down-Regulation, ACD",1.16
same,"Fold Up-or Down-Regulation, ACTB",-1.32
same,"Fold Up-or Down-Regulation, AKT1",-1.30
same,"Fold Up-or Down-Regulation, ATM",1.08
same,"Fold Up-or Down-Regulation, ATP5C1",1.19
same,"Fold Up-or Down-Regulation, B2M",1.15
same,"Fold Up-or Down-Regulation, BCL2",-1.32
same,"Fold Up-or Down-Regulation, BLM",1.21
same,"Fold Up-or Down-Regulation, CDK2",-1.24
same,"Fold Up-or Down-Regulation, CHEK1",1.13
same,"Fold Up-or Down-Regulation, CHEK2",1.23
same,"Fold Up-or Down-Regulation, DCLRE1B",-1.24
same,"Fold Up-or Down-Regulation, DCLRE1C",1.20
same,"Fold Up-or Down-Regulation, DKC1",1.14
same,"Fold Up-or Down-Regulation, EGF",1.11
same,"Fold Up-or Down-Regulation, EME1",1.26
same,"Fold Up-or Down-Regulation, ERCC1",-1.00
same,"Fold Up-or Down-Regulation, ERCC4",1.22
same,"Fold Up-or Down-Regulation, GAPDH",-1.04
same,"Fold Up-or Down-Regulation, GAR1",-1.05
same,"Fold Up-or Down-Regulation, HAT1",1.13
same,"Fold Up-or Down-Regulation, HNRNPA2B1",1.06
same,"Fold Up-or Down-Regulation, HNRNPD",-1.06
same,"Fold Up-or Down-Regulation, HPRT1",1.14
same,"Fold Up-or Down-Regulation, HSP90AA1",1.35
same,"Fold Up-or Down-Regulation, HSPA1L",1.65
same,"Fold Up-or Down-Regulation, IGF1",-57.88
same,"Fold Up-or Down-Regulation, KRAS",-1.13
same,"Fold Up-or Down-Regulation, KRIT1",1.12
same,"Fold Up-or Down-Regulation, MEN1",1.14
same,"Fold Up-or Down-Regulation, MRE11A",1.41
same,"Fold Up-or Down-Regulation, MSH2",-1.11
same,"Fold Up-or Down-Regulation, MSH3",-1.51
same,"Fold Up-or Down-Regulation, MUS81",1.55
same,"Fold Up-or Down-Regulation, MYC",-1.33
same,"Fold Up-or Down-Regulation, NBN",-1.27
same,"Fold Up-or Down-Regulation, NCL",1.04
same,"Fold Up-or Down-Regulation, NHP2",1.46
same,"Fold Up-or Down-Regulation, NOP10",-1.22
same,"Fold Up-or Down-Regulation, OBFC1",1.32
same,"Fold Up-or Down-Regulation, PARP1",1.02
same,"Fold Up-or Down-Regulation, PAX8",9.91
same,"Fold Up-or Down-Regulation, PIF1",-1.19
same,"Fold Up-or Down-Regulation, PINX1",1.13
same,"Fold Up-or Down-Regulation, PLK1",-1.39
same,"Fold Up-or Down-Regulation, POT1",-1.14
same,"Fold Up-or Down-Regulation, PPARG",1.08
same,"Fold Up-or Down-Regulation, PPP2R1A",-1.13
same,"Fold Up-or Down-Regulation, PPP2R1B",-1.46
same,"Fold Up-or Down-Regulation, PRKCA",1.12
same,"Fold Up-or Down-Regulation, PRKCB",-2.06
same,"Fold Up-or Down-Regulation, PRKDC",-1.20
same,"Fold Up-or Down-Regulation, PTGES3",1.07
same,"Fold Up-or Down-Regulation, PURA",1.07
same,"Fold Up-or Down-Regulation, RAD17",1.11
same,"Fold Up-or Down-Regulation, RAD50",1.44
same,"Fold Up-or Down-Regulation, RAP1A",-1.11
same,"Fold Up-or Down-Regulation, RAPGEF1",-1.03
same,"Fold Up-or Down-Regulation, RASSF1",1.26
same,"Fold Up-or Down-Regulation, RB1",-1.70
same,"Fold Up-or Down-Regulation, RFC1",1.33
same,"Fold Up-or Down-Regulation, RIF1",1.67
same,"Fold Up-or Down-Regulation, RPLP0",1.05
same,"Fold Up-or Down-Regulation, RTEL1",-2.58
same,"Fold Up-or Down-Regulation, SART1",1.50
same,"Fold Up-or Down-Regulation, SIRT2",-1.19
same,"Fold Up-or Down-Regulation, SIRT6",1.89
same,"Fold Up-or Down-Regulation, SLX4",-1.15
same,"Fold Up-or Down-Regulation, SMAD3",-1.55
same,"Fold Up-or Down-Regulation, SMG6",1.05
same,"Fold Up-or Down-Regulation, SP1",-1.43
same,"Fold Up-or Down-Regulation, SSB",1.14
same,"Fold Up-or Down-Regulation, SUN1",1.04
same,"Fold Up-or Down-Regulation, TEP1",1.73
same,"Fold Up-or Down-Regulation, TERF1",1.39
same,"Fold Up-or Down-Regulation, TERF2",-1.01
same,"Fold Up-or Down-Regulation, TERF2IP",1.47
same,"Fold Up-or Down-Regulation, TERT",-1.12
same,"Fold Up-or Down-Regulation, TGFB1",1.46
same,"Fold Up-or Down-Regulation, TINF2",1.14
same,"Fold Up-or Down-Regulation, TNKS",1.12
same,"Fold Up-or Down-Regulation, TNKS2",1.02
same,"Fold Up-or Down-Regulation, TP53",1.45
same,"Fold Up-or Down-Regulation, TP53BP1",1.18
same,"Fold Up-or Down-Regulation, TPP1",1.07
same,"Fold Up-or Down-Regulation, WRAP53",-1.06
same,"Fold Up-or Down-Regulation, XRCC5",-1.32
same,"Fold Up-or Down-Regulation, XRCC6",1.15
